Bounds are passed on as bounds.

What is called IC50 is the point on the concentration scale where inhibition reaches its midpoint. Read a low IC50 as greater potency. Broadly, the inhibition is the change of the read-out against control, counted positive when it falls.

The target in assay [1] is MAPK14 (human) (UniProt Q16539). The assay is described as follows: In vitro Inhibition of TNF-alpha Production in PBMC Cells.
Assay [2] has as its system MAPK14 (BALB/cJ mice). Description: In vivo Inhibition of LPS-induced TNF-alpha Production. As to conditions: dose or concentration not given here.
The target in assay [3] is MAPK14 (UniProt Q16539). The assay is described as follows: In vitro Inhibition of MAPK14 Kinase Activity.
Chain of MAPK14 (Q16539 whole entry, looked up): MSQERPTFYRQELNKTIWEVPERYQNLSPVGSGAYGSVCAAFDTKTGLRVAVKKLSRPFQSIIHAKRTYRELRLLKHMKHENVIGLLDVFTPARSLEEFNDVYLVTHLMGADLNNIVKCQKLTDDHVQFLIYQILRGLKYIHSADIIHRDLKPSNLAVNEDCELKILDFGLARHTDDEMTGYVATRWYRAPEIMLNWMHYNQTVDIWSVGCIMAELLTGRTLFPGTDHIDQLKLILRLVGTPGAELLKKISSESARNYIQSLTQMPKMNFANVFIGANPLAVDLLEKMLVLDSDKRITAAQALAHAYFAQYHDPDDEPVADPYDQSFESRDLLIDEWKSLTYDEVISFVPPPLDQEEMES

Chain of MAPK14 (human) (Q16539 whole entry, looked up): as above

For the molecule `CN1CCN(c2c(-c3ccncc3)c(-c3ccc(F)cc3)c(C#N)n2C)CC1`, the results for the IC50 in assay [1] and in assay [3] were 0.08 µM and 2 µM, respectively. Further, the inhibition in assay [2] is 47%.
On to `CCCNC(=O)c1c(-c2ccc(F)cc2)c(-c2ccncc2)c(N2CCNCC2)n1C`, for which the IC50 in assay [1] and in assay [3] was 10 µM in each case.
Regarding `COC(=O)C(=O)c1c(-c2ccc(F)cc2)c(-c2ccncc2)c(N2CCNCC2)n1C`, the IC50 in assay [1] stood at 0.028 µM; in assay [3] it was 10 µM. Further, in assay [2], the inhibition stood at 52%.
The corresponding values for `CCOC(=O)c1c(-c2cc(F)cc(F)c2)c(-c2ccncc2)c(Br)n1C` are 2.72 µM, greater than 10 µM and -36%.
In the case of `CC(=O)c1c(-c2ccc(F)cc2)c(-c2ccncc2)c(N2CCNCC2)n1C`, the results for the IC50 in assay [1] and in assay [3] were 0.04 µM and 10 µM, respectively. The inhibition in assay [2] came out at 39%.
Taken in the same sequence, the figures for `CCCc1c(-c2ccnc(N[C@@H](C)c3ccccc3)n2)c(-c2ccc(F)cc2)cn1CCN1CCOCC1` were 0.004 µM, 10 µM and -35%.
Regarding `COC(=O)c1c(-c2ccc(F)cc2)c(-c2ccncc2)c(N2CCCC2)n1C`, the IC50 in assay [1] is 0.017 µM; in assay [3], 10 µM. Further, in assay [2], the inhibition was -38%.
Take `COC(=O)c1c(-c2ccc(F)cc2)c(-c2ccncc2)c(Nc2ccc(N(C)C)cc2)n1C`: the IC50 was 0.118 µM in assay [1] and greater than 10 µM in assay [3]. The inhibition in assay [2] stood at 15%.
For the molecule `CC(=O)N1CCN(c2c(-c3ccncc3)c(-c3ccc(F)cc3)c(C#N)n2C)CC1`, the IC50 is 0.154 µM in assay [1] and 2 µM in assay [3]. Also, the inhibition in assay [2] is 81%.
Regarding `Fc1ccc(-c2c[nH]c(CN3CCc4ccccc4C3)c2-c2ccncc2)cc1`, the IC50 in assay [1] came to 0.04 µM; in assay [3], 2 µM. Besides, the inhibition in assay [2] came to 63%.
With `Cn1c(N2CCCC2)c(-c2ccncc2)c(-c2ccc(F)cc2)c1C(C)(C)O`, the IC50 in assay [1] came to 0.192 µM; in assay [3], 2 µM. In assay [2], the inhibition turned out to be 37.7%.
For `COC(=O)c1c(-c2ccc(F)cc2)c(-c2ccncc2)c(N2CCOCC2)n1C`, the IC50 was 0.047 µM in assay [1] and 10 µM in assay [3]. In addition, the inhibition in assay [2] is -41%.
Turning to `CC(=O)c1c(-c2ccc(F)cc2)c(-c2ccncc2)c(N2CCN(C(C)=O)CC2)n1C`, the IC50 was 0.043 µM in assay [1] and 2 µM in assay [3].
Take `COC(=O)c1c(-c2ccc(F)cc2)c(-c2ccncc2)c(N2CCN(C)CC2)n1C`: the figures for the IC50 in assay [1] and in assay [3] were 0.095 µM and 2 µM, respectively. In addition, the inhibition in assay [2] amounted to 89%.
Regarding `Cn1c(C(=O)C2CC2)c(-c2ccc(F)cc2)c(-c2ccncc2)c1N1CCN(C(=O)C2CC2)CC1`, the half-maximal inhibitory concentration (IC50) in assay [1] was 0.036 µM; in assay [3] it was 10 µM.
Consider `COC(=O)c1c(-c2ccc(F)cc2)c(-c2ccncc2)c(N)n1C`, for which the IC50 in assay [1] was determined as 0.051 µM; in assay [3] it was 10 µM. The inhibition in assay [2] turned out to be 53.9%.
For `COC(=O)c1c(-c2ccc(F)cc2)c(-c2ccncc2)c(N2CCNCC2)n1C`, the IC50 in assay [1] was found to be 0.033 µM; in assay [3], 10 µM. Besides, the inhibition in assay [2] came out at 73%.
In assay [1], `CCOC(=O)c1c(-c2cc(F)cc(F)c2)c(-c2ccncc2)cn1C` gave an IC50 of 0.033 µM. Further, the inhibition in assay [2] was -31%.
The corresponding values for `CCOC(=O)N1CCN(c2c(-c3ccncc3)c(-c3ccc(F)cc3)c(C(=O)OC)n2C)CC1` are 0.03 µM and 8%.
Regarding `Cn1c(C#N)c(-c2ccc(F)cc2)c(-c2ccncc2)c1N1CCNCC1`, in assay [1], the IC50 stood at 0.018 µM. Also, the inhibition in assay [2] came out at 67%.
Taken in the same sequence, the figures for `CCNC(=O)c1[nH]cc(-c2ccc(F)cc2)c1-c1ccncc1` were 0.209 µM and -24%.
The corresponding values for `COC(=O)c1c(-c2ccc(F)cc2)c(-c2ccncc2)c(Nc2ccc(N3CCOCC3)cc2)n1C` are 1.56 µM and 29%.

Values taken from the Kinase Knowledgebase extract (Sharma et al. 2016).
